Data on three compounds can be found in patent publication US11969499B2, “Hydrogel delivery of sting immunotherapy for treatment cancer” (WILLIAM MARSH RICE UNIVERSITY, priority 2017, dated 2024).

Data set [1] can be described thus: CDN drug release kinetics from hydrogels (UV absorbance at 259 nm). The settings on record: for CDN release compared to collagen (FIG. 5B): 30 μL gels, 910 μM CDN, under 200 μL HBSS, 24 h; for release profile of gels (FIG. 3A): CDN release, preliminary data. The format is physicochemical. How it is done: CDN release kinetics. 30 μL CDN-loaded gel aliquots are deposited into 96 well plates with 200 μL of buffer added to the top of the gels at time point t=0. For all kinetics experiments, a Thermo Scientific Nanodrop 2000C Spectrophotometer is used to measure UV absorbance at 259 nm, the characteristic wavelength of maximum absorbance for the adenine nucleobases present in the CDN. See FIG. 1A for an example of preliminary release kinetics data.
CDN drug release kinetics. To study the kinetics of CDN release from STINGel vs. collagen gel, 30 μL CDN-loaded gel aliquots were deposited into Falcon® 96 well flat bottom polystyrene plates (Becton Dickinson Labware, Franklin Lakes, NJ). For each experiment, cylindrical pucks of the 30 μL gel aliquots were created in each well, allowing the pipetted gels to shear recover for at least 5 mM before adding 200 μL of buffer (1×HBSS for STINGel, lx DPBS for collagen, according to gelation requirements) to the top of the gels at what was defined as t=0 for the start of kinetics experiments. The buffer height was approximately 2.5 mm, the gel thickness approximately 0.5 mm, and the gel's solvent exposed surface area approximately 12.6 mm^2.
A Thermo Scientific Nanodrop 2000C Spectrophotometer was used to measure UV absorbance at 259 nm, the characteristic wavelength of maximum absorbance for the CDN's adenine nucleobases. An extinction coefficient of 24,000 M^−1 cm^−1 at 259 nm was used. Absorbance measurements were taken by removal of 1 μL aliquots from the surface of the buffers, measuring the increase in absorbance over time. Release of CDN was measured over the course of the first 24 hours and converted to total percent released, with additional measurements also made at 48 and 72 hours to confirm that the samples had reached equilibrium.

In data set [2] the test system is MOC2-E6E7 tumors. Description: Tumor growth and survival study (Examples 3-4). Format: in vivo, C57BL/6 mice. On the procedure:
Tumor growth and survival study. For tumor experiments, 6-8 week old wild-type C57BL/6 female mice were maintained in a pathogen-free environment for the study. All protocols were in accordance with the guidelines for humane treatment of laboratory animals by the National Institutes of Health, the Animal Welfare Committee and the Center for Laboratory Animal Medicine and Care (CLAMC) at the University of Texas Health Science Center at Houston. Mice were injected with MOC2-E6E7 tumor cells on day 0 into the maxillary oral vestibule (30,000 cells in 30 μL volume), followed by controls or gel injections loaded with or without CDN on day 3 in the same oral cavity location (20 lag CDN per 30 μL injection). Tumor growth was measured using calipers and body weight was taken in all subjects two to three times per week. Photographs were also obtained. Kaplan-Meier survival and tumor growth curve analyses were performed from data obtained. Mice that maintained tumor clearance for 100 days were re-challenged with MOC2-E6E7 tumor cells again at day 105 and monitored similarly. All endpoints in tumor growth curve and survival data are a result of euthanasia due to excessive tumor burden, defined as tumor reaching 12 mm, tumor ulceration, or a weight loss of greater than 20%. The inventors observed no signs of unexpected disease or discomfort in the mice over the course of the experiments.
Statistical methods. Statistical analyses for Kaplan-Meier survival curves were performed using the log-rank/Mantel-Cox test with GraphPad Prism (GraphPad, San Diego, CA). For tumor growth curves, the Wilcoxon rank sum test was used to compare tumor size between STINGel and other groups. No adjustment for multiple testing was made because the study is novel and exploratory. All p values are two-sided and p values less than 0.05 were considered as significant. All statistical analyses were performed using the SAS software (version 9.4, the SAS Institute, Cary, NC).

The subject of data set [3] is MOC1 tumors. The settings on record: multiple intratumoral injections of CDN alone, cited from earlier work.
Data set [4] concerns MOC2-E6E7 cells. As to the kind of experiment: In vitro live/dead cell viability in unloaded and CDN-loaded MDP hydrogel. Format: cell-based. The settings on record: for percent cell viability per mm3 of hydrogel vs no CDN / percent cell viability per mm3 of hydrogel: Day 7. How it is done: Preparation of cell—laden hydrogel for in vitro viability. MDP gel formulations with MOC2-E6E7 cells were prepared by diluting a cell suspension of 2,000,000 cells/mL in 2×HBSS with an equal volume of 4×CDN. The resulting suspension was then added to an equal volume of sterile 2 wt. % peptide in 298 mM sucrose and mixed to produce final samples of approximately 35,000 cells per 70 μL of 1 wt. %, 149 mM sucrose gel. Gels were then transferred into 0.4 cm 2 wells of Lab-Tek 16 well glass chamber slides (Thermo Fischer, Rochester, NY), pipetted to produce 70 μL pucks with flat profiles. Samples were allowed to shear recover for 5-10 mM before adding 200 μL cell media on top of each gel. The cell media was changed every 2 days, taking care to not dislodge the hydrogel material.
Cell viability was determined at each desired time point by performing live/dead assays as described below. Live/dead staining solution was prepared in DPBS with 2 μM Calcein AM for live cells (Life Technologies), 4 μM Ethidium homodimer for dead cells (Life Technologies), and 5 μg/mL Hoechst 33342 for nuclei (MP Biomedicals, Solon, OH). […] Cell media was removed and the gels were washed with PBS. Samples were then stained with 100 μL of prepared solution by incubating at RT for 15-30 mM. Following staining, gels were placed in PBS for immediate analysis by confocal microscopy. Gels were analyzed by z-stack imaging (100 μm) using a Nikon A1 Confocal Microscope with 20× air and 40× water objectives (405 nm blue channel laser, 488 nm green channel laser, 561 nm red channel laser). Image processing was done using NIS Elements, and live/dead cell counting was performed using the cell identification tool in Imaris 3D/4D Image Processing software, manually verified with nuclear counts when resolution allowed.

Data set [5] concerns non-T cell-inflamed head and neck tumors. The settings on record: in vivo; cited from earlier work.
Data set [6] has as its system MOC2 tumors. The settings on record: multiple CDN injections; cited from earlier work.
For data set [7], the system named is MOC-2-E6E7 tumors. As to the kind of experiment: MOC-2-E6E7 orthotopic murine model of HNSCC, survival (Example 2, FIG. 2E). Set-up: species or system C57BL/6 mice. The settings on record: mouse, in vivo. How it is done: MOC-2-E6E7 Orthotopic murine model of HNSCC. 6 week-old male and female C57BL/6 mice will be inoculated in the left maxillary vestibule with MOC-2-E6E7 cells (30,000 cells in 30 μl volume). Animals will be monitored using a body condition scoring system to ensure they maintain a healthy weight and show no obvious signs of distress. At Day 14 post-tumor inoculation, STINGel (20 jug CDN in 30 μl of MDP hydrogel) or controls (as above) are injected into the oral tumor site. Animal studies will be done in triplicate, independent experiments for significance. Between-group differences in flow cytometric data will be statistically evaluated with one-way ANOVA and post-hoc analysis using Tukey's method. Differences between groups will be considered significant if p<0.05. In efficacy studies, Kaplan-Meier survival curves will be compared using the log-rank/Mantel-Cox test and tumor growth curves will be analyzed using the Koziol method (Koziol et al., 1981; 1982).

Entries after “also recorded” stand apart in the source; their conditions may differ. Read-outs that look alike come from different tables or passages of the source.

As to “E2(SL)6E2 (SEQ ID NO: 3) (EESLSLSLSLSLSLEE) [additional multidomain peptide hydrogel with glutamate termini]”, in data set [1], the “CDN release compared to collagen (FIG. 5B)” value is “better (slower) release compared to collagen” and the “release profile of gels (FIG. 3A)” value is recorded as “intermediate release rates”.
In the case of “R2(SL)6R2 (SEQ ID NO: 4) (RRSLSLSLSLSLSLRR) [additional multidomain peptide hydrogel with arginine termini]”, in data set [1], the “CDN release compared to collagen (FIG. 5B)” value is “better (slower) release compared to collagen; also recorded: the best of the group” and the “release profile of gels (FIG. 3A)” value is “slowest, most prolonged release”.
As to `Nc1ncnc2c1ncn2[C@@H]1O[C@@H]2COP(O)(=S)O[C@@H]3C(O)[C@@H](COP(O)(=S)O[C@H]2[C@H]1O)O[C@H]3n1cnc2c(N)ncnc21` (stereo partly drawn) [CDN, dithio-(RP,RP)-[cyclic[A(2′,5′)pA(3′,5′)p]]], the “mice surviving until the endpoint of the study” value in data set [2] (140 days post-tumor cell inoculation, single injection day 3, 20 μg CDN in 30 μL, n=10) came to 10%. Also, the “effect on tumor growth” value in data set [2] (single injection day 3 post inoculation) was “ineffective in preventing tumor growth”. Besides, the entries for the “efficacy / tumor rejection” value in data set [3] and in data set [3] (listed as CDN alone) were “only to a subset of MOC1 tumor rejection” and “minimal efficacy”, respectively. For the same compound, the “percent cell viability per mm3 of hydrogel vs no CDN” value in data set [4] (5 μM CDN), in data set [4] (57 μM CDN) and in data set [4] (114 μM CDN) was “equivalent” in each case. For the same compound, the “percent cell viability per mm3 of hydrogel” value in data set [4] (228 μM CDN) was “reduced cell viability”; in data set [4] (455 μM CDN) it was “no cell viability”; in data set [4] (910 μM CDN) it was “no cell viability”. Further, the “max tolerable dose cells can experience in their local environment” value in data set [4] (without the massive cell death observed at 455 μM and above) turned out to be 228 µM. In addition, in data set [5], the efficacy entry is reported as “completely ineffective”. Moreover, the tumor rejection entry in data set [6] is “unsuccessful MOC2 tumor rejection”. In addition, the “mortality before day 60” value in data set [7] turned out to be 100%.
